Measurements from publication PMC8868331, “Hydroxamic Acid as a Potent Metal-Binding Group for Inhibiting Tyrosinase” (Antioxidants, 2022).
Where two headings read alike, the source gives them in different places. Each block holds one compound with its values, some of them ahead of it.

Tests used:
tyrosinase [1] = molecular target: tyrosinase (Agaricus bisporus, UniProt C7FF04); assay: Enzyme-inhibitory kinetics (Michaelis-Menten fitting with inhibition models); assay type: biochemical, mushroom; conditions: for Kinetics model (mode of inhibition): model chosen by F-test on reduced χ2
tyrosinase (Agaricus bisporus, UniProt C7FF04), sequence (C7FF04 1-392): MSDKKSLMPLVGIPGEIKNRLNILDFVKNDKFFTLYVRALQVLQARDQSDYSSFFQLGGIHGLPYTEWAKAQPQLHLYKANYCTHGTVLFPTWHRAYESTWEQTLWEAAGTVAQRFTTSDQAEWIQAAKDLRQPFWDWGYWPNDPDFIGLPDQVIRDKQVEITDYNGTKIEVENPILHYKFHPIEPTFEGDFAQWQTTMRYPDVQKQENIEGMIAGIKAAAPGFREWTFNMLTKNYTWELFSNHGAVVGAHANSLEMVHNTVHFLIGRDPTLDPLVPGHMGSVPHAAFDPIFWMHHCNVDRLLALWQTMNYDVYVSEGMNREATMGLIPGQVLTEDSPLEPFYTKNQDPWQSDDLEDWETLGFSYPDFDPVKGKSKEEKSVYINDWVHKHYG
Experimental: Enzyme-inhibitory kinetics—Upon varying the substrate and inhibitor concentrations, the rates of product generation were measured. Simultaneous nonlinear fitting of all the profiles in an inhibitor was performed by minimizing the ꭓ^2-value, the sum of the squared differences in theoretical and experimental values, in the Michaelis–Menten equations assuming competitive, uncompetitive, noncompetitive, and mixed models. […] Reduced ꭓ^2-values, ꭓ^2-values divided by the difference in the numbers of input data and fitting parameters, were compared between the models based on the F-test to identify the most appropriate model.
The inhibitory kinetic experiments provide information for understanding the inhibition by small molecules. The rates of product generation were measured for a series of paired substrate and inhibitor concentrations. Subsequent nonlinear fitting using the Michaelis−Menten equations extended with inhibitory models and constants produced the inhibition mode and the binding constant.
Figure 4F lists the parameters for inhibition. […] However, one should be careful not to overinterpret the simulated modes and Ki values. The modes were chosen using the F-test, comparing reduced χ^2-values from each model.

[2] = molecular target: mushroom tyrosinase from Agaricus bisporus (Agaricus bisporus, UniProt C7FF04); assay: Enzyme-activity assay with mushroom tyrosinase, L-DOPA substrate, dopachrome absorbance at 475 nm; assay type: biochemical
mushroom tyrosinase from Agaricus bisporus, sequence (C7FF04 1-392): as above

[3] = test system: arachidonate 5-lipoxygenase; design: method as in PMID 3820229; conditions: cited from earlier work
[4] = test system: indoleamine 2,3-dioxygenase; design: method as in PMID 26717206; conditions: cited from earlier work
carbonic anhydrase = test system: carbonic anhydrase; design: method as in PMID 22836518; conditions: cited from earlier work
mushroom tyrosinase = mushroom tyrosinase (Agaricus bisporus, UniProt C7FF04); assay: Differential scanning fluorimetry (DSF) with SYPRO Orange; assay type: binding; conditions: 500 μM inhibitor; for Tm: mean ± SD of three experiments, DMSO control 49.16
mushroom tyrosinase, sequence (C7FF04 1-392 limits assumed): as the sequence (C7FF04 1-392) above
Experimental: Differential scanning fluorimetry—Differential scanning fluorimetry (DSF) was used to characterize the direct binding of inhibitors to tyrosinase. In the absence and presence of 500 μM inhibitor, SYPRO® Orange was added to the enzyme solution. […] Time- and temperature-dependent signals were observed using the RT-PCR CFX96 system from BioRad (Hercules, CA, USA). The following equation was nonlinearly minimized to determine the mid-point melting temperature (Tm). I(T)=LL+UL−LL/[1+exp(Tm−T/a)] where UL and LL indicate the top and baseline of the curves, respectively, and a indicates the steepness of the slope.
We used differential scanning fluorimetry (DSF) to verify whether active small molecules identified by biochemical assays bound to tyrosinase directly. DSF was used to evaluate the fluorescence profiles of the dye SYPRO® Orange in a mixture with the protein upon elevating the temperature. The alteration in the unfolding process in the presence of a direct binder can shift the DSF pattern.

[5] = molecular target: T1, mammalian tyrosinase in B16F10 cell lysates (Mus musculus, UniProt P11344); assay: Cell-lysate-based tyrosinase activity assay; assay type: biochemical, murine; conditions: 50 μM, relative to untreated control
T1 construct: The cell extracts having tyrosinase activity were prepared; host or cells: B16F10 murine melanoma cells, stimulated with 3-isobutyl-1-methylxanthine, lysate
T1 sequence (P11344 19-533): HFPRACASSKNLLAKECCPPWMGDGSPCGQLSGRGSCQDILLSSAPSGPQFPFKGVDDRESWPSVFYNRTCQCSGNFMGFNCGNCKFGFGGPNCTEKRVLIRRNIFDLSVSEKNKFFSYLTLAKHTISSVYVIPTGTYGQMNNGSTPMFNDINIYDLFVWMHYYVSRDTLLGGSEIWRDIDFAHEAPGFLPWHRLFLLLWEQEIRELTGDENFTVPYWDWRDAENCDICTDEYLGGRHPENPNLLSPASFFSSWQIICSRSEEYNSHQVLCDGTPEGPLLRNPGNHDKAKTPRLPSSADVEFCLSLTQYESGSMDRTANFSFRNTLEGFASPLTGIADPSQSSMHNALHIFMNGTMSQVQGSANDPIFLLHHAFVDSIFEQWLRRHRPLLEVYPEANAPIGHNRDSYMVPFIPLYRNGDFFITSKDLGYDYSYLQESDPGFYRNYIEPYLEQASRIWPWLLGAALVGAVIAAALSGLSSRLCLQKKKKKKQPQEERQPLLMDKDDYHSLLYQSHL
Experimental: Cell-lysate-based activity assays with inhibitors—Cell-lysate-based assays were performed using B16F10 murine melanoma cells obtained from the Korean Cell Line Bank (Seoul, Korea). The B16F10 cells were grown to a density of 1 × 10^5 cells in Dulbecco’s modified Eagle’s medium supplemented with 10% fetal bovine serum and 1% penicillin−streptomycin at 37 °C under 5% CO2. The cells were incubated for 48 h after the addition of 100 μM 3-isobutyl-1-methylxanthine. The cell extracts having tyrosinase activity were prepared.
The melanin quantification assay and the cell-lysate-based activity assay were used for confirming the inhibition of mammalian tyrosinases. Unfortunately, quantifying melanin content using hydroxamate-containing molecules is not feasible because anticancer agents affect cell viability. Therefore, we evaluated tyrosinase activities using B16F10 cell lysates in a small-molecule-concentration-dependent manner.

mandelate racemase = test system: mandelate racemase; design: method as in PMID 17055725; conditions: cited from earlier work
tyrosinase [6] = conditions: cited from earlier work; for IC50: ChEMBL-registered tyrosinase inhibitor
[7] = shift toward lower temperature against DMSO
[8] = mushroom tyrosinase, concentration-dependent profile (Figure 2)

Compound: CC(=O)NO [Acetohydroxamic acid]
- Kinetics model (mode of inhibition) (tyrosinase [1]): noncompetitive
- Ki ([2]; inhibitory constant converted from IC50 (Cheng-Prusoff), 5 nM enzyme, 500 μM L-DOPA, ± is SD from Monte-Carlo simulation, read-out: Ki): 38 ± 8 µM

- Ki (tyrosinase [1]): 0.128 µM
- Kinetics model (mode of inhibition) (tyrosinase [1]): noncompetitive
- Tm (mushroom tyrosinase): 47.15 ± 0.07 °C
- ΔTm (mushroom tyrosinase; shift toward lower temperature): 2.01 degrees
- ΔTm (mushroom tyrosinase; [7]): 2.01 °
- Decrease of tyrosinase activity [5]: approximately 97%
- Ki [2]: 0.007 ± 0.001 µM
Compound: O=C(NO)c1ccccc1 [Benzohydroxamic acid]
- Inhibition of arachidonate 5-lipoxygenase (in words) [3]: μM range
- Inhibition of indoleamine 2,3-dioxygenase (in words) [4]: μM range
- Inhibition of carbonic anhydrase (in words) (carbonic anhydrase): μM range
- Inhibition of mandelate racemase (in words) (mandelate racemase): μM range

- Ki ([2]; read-out: Ki): 32 ± 5 µM
Compound: CCCC(=O)NO [Butyrylhydroxamic acid]

Compound: Oc1ccc(-c2nc3ccccc3s2)c(O)c1 [CHEMBL1408767]
- IC50 (tyrosinase [6]; ref 61 (supplement ref 7)): 0.01 µM

Compound: CCN(CC)C(=O)/C=C/c1ccc(O)cc1O [CHEMBL4463984]
- IC50 (tyrosinase [6]; ref 62 (supplement ref 8)): 0.011 µM

Compound: NCC(=O)NO [Glycine hydroxamate]
- Inhibition of tyrosinase (in words) (tyrosinase [6]): comparable inhibitory activity to arbutin

Compound: CC(=O)NO [N-Hydroxyacetamide]
- Ki ([2]; inhibitory constant converted from IC50 (Cheng-Prusoff), 5 nM enzyme, 500 μM L-DOPA, read-out: Ki): > 1000 µM
- Inhibition of tyrosinase (in words) [2, 8]: scarcely inhibited

- Kinetics model (mode of inhibition) (tyrosinase [1]): competitive
- Ki (tyrosinase [1]; simultaneous nonlinear fit, read-out: Ki (simulated inhibitory constant from kinetics fit)): 0.29 µM
- Tm (mushroom tyrosinase): 46.72 ± 0.06 °C
- ΔTm (mushroom tyrosinase; shift toward lower temperature): 2.44 degrees
- ΔTm (mushroom tyrosinase; [7]): 2.44 °
- Ki values as worded in the text (words or range with mixed units) ([2]; mushroom tyrosinase): submicromolar range
- Ki ([2]; read-out: Ki): 0.04 ± 0.005 µM
Compound: Cc1[nH]c2ccccc2c1CCNCc1ccc(/C=C/C(=O)NO)cc1 [Panobinostat]

Compound: C/C=C1\NC(=O)[C@H]2CSSCC/C=C/[C@H](CC(=O)N[C@H](C(C)C)C(=O)N2)OC(=O)[C@H](C(C)C)NC1=O [Romidepsin]
- Inhibition of tyrosinase (in words) [2]: inhibited very weakly
- Ki [2]: > 500 µM

- Kinetics model (mode of inhibition) (tyrosinase [1]): competitive
- Tm (mushroom tyrosinase): 47.31 ± 0.07 °C
- ΔTm (mushroom tyrosinase; shift toward lower temperature): 1.85 degrees
- ΔTm (mushroom tyrosinase; [7]): 1.85 °
- Ki [2]: 0.18 ± 0.021 µM
Compound: O=C(CCCCCN1C(=O)c2cccc3cccc(c23)C1=O)NO [Scriptaid]

Compound: O=C(CCCCCCC(=O)NO)NO [Suberohydroxamic acid]
- Ki ([2]; read-out: Ki): 1 ± 0.2 µM

Compound: CC(/C=C/C(=O)NO)=C\[C@@H](C)C(=O)c1ccc(N(C)C)cc1 [Trichostatin A]
- Ki (tyrosinase [1]; Ki for apo state (mixed model), first value, apo state): 4.5 µM
- Ki (tyrosinase [1]; Ki for holo state (mixed model), second value, holo state): 37 µM
- Kinetics model (mode of inhibition) (tyrosinase [1]): mixed
- Tm (mushroom tyrosinase): 46.55 ± 0.07 °C
- Ki [2]: 1 ± 0.1 µM

Compound: O=c1cccccc1O [Tropolone]
- Ki ([2]; read-out: Ki): 0.043 ± 0.003 µM

- Inhibition of tyrosinase (in words) [2, 8]: inhibited very weakly
- Ki ([2]; read-out: Ki): > 500 µM
Compound: CCCC(CCC)C(=O)O [Valproic acid]
